# Measured values published in ChEMBL document CHEMBL4507286 (2021).
# Active and inactive are the calls of the source. No cut-off for these calls is given here.
# Columns and labels:
# [1] = biological target: Calcium/calmodulin-dependent protein kinase type II subunit beta (Homo sapiens) (UniProt Q13554)
# [2] = biological target: Mitogen-activated protein kinase 1 (Homo sapiens, UniProt P28482); test: ERK Biochemical Assay
# [3] = biological target: Receptor-type tyrosine-protein kinase FLT3 (Homo sapiens) (UniProt P36888)
# [4] = biological target: Serine/threonine-protein kinase 38-like (Homo sapiens) (UniProt Q9Y2H1)
# [5] = test system: Phosphatidylinositol 4,5-bisphosphate 3-kinase catalytic subunit alpha isoform (Homo sapiens), P42336 [E545K]
# [6] = biological target: Activin receptor type-2A (Homo sapiens) (UniProt P27037)
# [7] = test system: Tyrosine-protein kinase ABL1 (Homo sapiens), P00519 [H396P]
# [8] = biological target: Serine/threonine-protein kinase MARK1 (Homo sapiens) (UniProt Q9P0L2)
# [9] = biological target: Histamine H2 receptor (Homo sapiens) (UniProt P25021); settings: Compound concentration 10.0 uM
# [10] = biological target: Serine/threonine-protein kinase LATS1 (Homo sapiens) (UniProt O95835)
# [11] = biological target: Calcium/calmodulin-dependent protein kinase type II subunit delta (Homo sapiens) (UniProt Q13557)
# [12] = biological target: High affinity nerve growth factor receptor (Homo sapiens) (UniProt P04629)
# [13] = biological target: Activin receptor type-2B (Homo sapiens) (UniProt Q13705)
# [14] = test system: Epidermal growth factor receptor (Homo sapiens), P00533 [UNDEFINED MUTATION]
# [15] = biological target: Tyrosine-protein kinase Fgr (Homo sapiens) (UniProt P09769)
# [16] = biological target: MAP kinase-interacting serine/threonine-protein kinase 1 (Homo sapiens) (UniProt Q9BUB5)
# [17] = biological target: 5-hydroxytryptamine receptor 1A (Homo sapiens) (UniProt P08908); settings: Compound concentration 10.0 uM
# [18] = biological target: Serine/threonine-protein kinase PLK1 (Homo sapiens) (UniProt P53350)
# [19] = biological target: Dual specificity mitogen-activated protein kinase kinase 4 (Homo sapiens) (UniProt P45985)
# [20] = biological target: Rhodopsin kinase GRK1 (Homo sapiens) (UniProt Q15835)
# [21] = biological target: Dual specificity protein kinase CLK2 (Homo sapiens, UniProt P49760)
# [22] = biological target: Mitogen-activated protein kinase kinase kinase 19 (Homo sapiens) (UniProt Q56UN5)
# [23] = biological target: Serine/threonine-protein kinase BRSK1 (Homo sapiens) (UniProt Q8TDC3)
# [24] = biological target: Activin receptor type-1B (Homo sapiens) (UniProt P36896)
# [25] = biological target: Serine/threonine-protein kinase PAK 6 (Homo sapiens) (UniProt Q9NQU5)
# [26] = biological target: Serine/threonine-protein kinase DCLK3 (Homo sapiens) (UniProt Q9C098)
# [27] = biological target: Receptor-type tyrosine-protein kinase FLT3 (Homo sapiens) (UniProt P36888); remark: listed apart in the source
# [28] = biological target: Tyrosine-protein kinase JAK2 (Homo sapiens) (UniProt O60674)
# [29] = test system: Proto-oncogene tyrosine-protein kinase receptor Ret (Homo sapiens), P07949 [V804M]
# [30] = biological target: MAP kinase-activated protein kinase 5 (Homo sapiens) (UniProt Q8IW41)
# [31] = test system: Epidermal growth factor receptor (Homo sapiens), P00533 [UNDEFINED MUTATION]; remark: listed apart in the source
# [32] = biological target: Angiopoietin-1 receptor (Homo sapiens) (UniProt Q02763)
# [33] = biological target: Cyclin-dependent kinase 11B (Homo sapiens) (UniProt P21127)
# [34] = biological target: Serine/threonine-protein kinase NLK (Homo sapiens) (UniProt Q9UBE8)
# [35] = biological target: Focal adhesion kinase 1 (Homo sapiens) (UniProt Q05397)
# [36] = biological target: Muscle, skeletal receptor tyrosine-protein kinase (Homo sapiens) (UniProt O15146)
# [37] = biological target: Histamine H3 receptor (Homo sapiens) (UniProt Q9Y5N1); settings: Compound concentration 10.0 uM
# [38] = biological target: Cyclin-dependent kinase 14 (Homo sapiens) (UniProt O94921)
# [39] = biological target: Serine/threonine-protein kinase 10 (Homo sapiens) (UniProt O94804)
# [40] = test system: Receptor-type tyrosine-protein kinase FLT3 (Homo sapiens), P36888 [D835H]
# [41] = biological target: Mitogen-activated protein kinase 11 (Homo sapiens) (UniProt Q15759)
# [42] = biological target: Ribosomal protein S6 kinase alpha-3 (Homo sapiens) (UniProt P51812)
# [43] = biological target: Bone morphogenetic protein receptor type-1A (Homo sapiens) (UniProt P36894)
# [44] = test system: Receptor-type tyrosine-protein kinase FLT3 (Homo sapiens), P36888 [UNDEFINED MUTATION]
# [45] = biological target: MAP kinase-interacting serine/threonine-protein kinase 2 (Homo sapiens) (UniProt Q9HBH9)
# [46] = Compound concentration 1000.0 nM
# [47] = Compound concentration 100.0 nM
# Chain of Epidermal growth factor receptor (Homo sapiens), P00533 [UNDEFINED MUTATION] (P00533 whole entry, looked up, change not shown): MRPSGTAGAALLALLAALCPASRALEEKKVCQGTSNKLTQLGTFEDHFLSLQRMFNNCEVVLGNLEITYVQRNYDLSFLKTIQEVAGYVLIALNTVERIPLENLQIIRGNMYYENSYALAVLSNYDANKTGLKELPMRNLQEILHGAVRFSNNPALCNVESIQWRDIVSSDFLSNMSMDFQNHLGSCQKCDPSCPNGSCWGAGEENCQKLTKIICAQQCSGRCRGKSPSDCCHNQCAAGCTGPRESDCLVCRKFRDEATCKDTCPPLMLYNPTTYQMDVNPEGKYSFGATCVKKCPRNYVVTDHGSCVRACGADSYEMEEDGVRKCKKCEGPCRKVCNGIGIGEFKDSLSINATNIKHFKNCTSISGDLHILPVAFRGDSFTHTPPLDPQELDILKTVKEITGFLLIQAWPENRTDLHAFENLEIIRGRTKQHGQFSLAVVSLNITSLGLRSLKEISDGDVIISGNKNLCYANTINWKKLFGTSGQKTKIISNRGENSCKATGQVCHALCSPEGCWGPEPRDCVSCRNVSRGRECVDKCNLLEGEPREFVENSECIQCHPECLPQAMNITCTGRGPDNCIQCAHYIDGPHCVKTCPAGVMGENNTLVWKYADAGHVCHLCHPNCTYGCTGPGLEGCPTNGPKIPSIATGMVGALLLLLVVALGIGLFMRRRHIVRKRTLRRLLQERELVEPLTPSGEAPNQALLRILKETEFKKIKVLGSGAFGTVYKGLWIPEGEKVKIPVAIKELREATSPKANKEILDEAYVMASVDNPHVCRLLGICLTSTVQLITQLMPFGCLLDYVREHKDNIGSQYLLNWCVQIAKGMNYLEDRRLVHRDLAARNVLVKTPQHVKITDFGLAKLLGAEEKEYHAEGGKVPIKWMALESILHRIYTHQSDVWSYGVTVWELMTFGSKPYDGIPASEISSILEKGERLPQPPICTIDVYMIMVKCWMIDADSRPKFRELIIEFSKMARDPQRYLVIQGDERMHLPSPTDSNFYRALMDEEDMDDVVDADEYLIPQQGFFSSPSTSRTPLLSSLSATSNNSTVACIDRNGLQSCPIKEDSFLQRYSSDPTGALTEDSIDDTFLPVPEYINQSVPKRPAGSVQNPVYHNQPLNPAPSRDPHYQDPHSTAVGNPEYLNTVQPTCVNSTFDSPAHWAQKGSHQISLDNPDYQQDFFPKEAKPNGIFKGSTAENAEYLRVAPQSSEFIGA
# Chain of MAP kinase-activated protein kinase 5 (Homo sapiens) (Q8IW41 whole entry): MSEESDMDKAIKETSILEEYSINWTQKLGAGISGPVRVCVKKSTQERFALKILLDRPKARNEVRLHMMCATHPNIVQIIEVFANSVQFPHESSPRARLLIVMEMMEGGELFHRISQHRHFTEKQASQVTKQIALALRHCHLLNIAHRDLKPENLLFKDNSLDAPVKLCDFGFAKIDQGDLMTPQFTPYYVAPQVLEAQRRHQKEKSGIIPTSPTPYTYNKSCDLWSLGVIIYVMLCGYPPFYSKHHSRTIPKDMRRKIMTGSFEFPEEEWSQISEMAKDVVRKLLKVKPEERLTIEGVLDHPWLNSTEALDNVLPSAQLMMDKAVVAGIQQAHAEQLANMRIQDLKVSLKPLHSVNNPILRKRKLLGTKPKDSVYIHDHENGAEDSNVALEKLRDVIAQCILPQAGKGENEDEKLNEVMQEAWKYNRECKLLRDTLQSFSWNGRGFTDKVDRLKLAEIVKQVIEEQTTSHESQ
# Chain of Mitogen-activated protein kinase kinase kinase 19 (Homo sapiens) (Q56UN5 whole entry): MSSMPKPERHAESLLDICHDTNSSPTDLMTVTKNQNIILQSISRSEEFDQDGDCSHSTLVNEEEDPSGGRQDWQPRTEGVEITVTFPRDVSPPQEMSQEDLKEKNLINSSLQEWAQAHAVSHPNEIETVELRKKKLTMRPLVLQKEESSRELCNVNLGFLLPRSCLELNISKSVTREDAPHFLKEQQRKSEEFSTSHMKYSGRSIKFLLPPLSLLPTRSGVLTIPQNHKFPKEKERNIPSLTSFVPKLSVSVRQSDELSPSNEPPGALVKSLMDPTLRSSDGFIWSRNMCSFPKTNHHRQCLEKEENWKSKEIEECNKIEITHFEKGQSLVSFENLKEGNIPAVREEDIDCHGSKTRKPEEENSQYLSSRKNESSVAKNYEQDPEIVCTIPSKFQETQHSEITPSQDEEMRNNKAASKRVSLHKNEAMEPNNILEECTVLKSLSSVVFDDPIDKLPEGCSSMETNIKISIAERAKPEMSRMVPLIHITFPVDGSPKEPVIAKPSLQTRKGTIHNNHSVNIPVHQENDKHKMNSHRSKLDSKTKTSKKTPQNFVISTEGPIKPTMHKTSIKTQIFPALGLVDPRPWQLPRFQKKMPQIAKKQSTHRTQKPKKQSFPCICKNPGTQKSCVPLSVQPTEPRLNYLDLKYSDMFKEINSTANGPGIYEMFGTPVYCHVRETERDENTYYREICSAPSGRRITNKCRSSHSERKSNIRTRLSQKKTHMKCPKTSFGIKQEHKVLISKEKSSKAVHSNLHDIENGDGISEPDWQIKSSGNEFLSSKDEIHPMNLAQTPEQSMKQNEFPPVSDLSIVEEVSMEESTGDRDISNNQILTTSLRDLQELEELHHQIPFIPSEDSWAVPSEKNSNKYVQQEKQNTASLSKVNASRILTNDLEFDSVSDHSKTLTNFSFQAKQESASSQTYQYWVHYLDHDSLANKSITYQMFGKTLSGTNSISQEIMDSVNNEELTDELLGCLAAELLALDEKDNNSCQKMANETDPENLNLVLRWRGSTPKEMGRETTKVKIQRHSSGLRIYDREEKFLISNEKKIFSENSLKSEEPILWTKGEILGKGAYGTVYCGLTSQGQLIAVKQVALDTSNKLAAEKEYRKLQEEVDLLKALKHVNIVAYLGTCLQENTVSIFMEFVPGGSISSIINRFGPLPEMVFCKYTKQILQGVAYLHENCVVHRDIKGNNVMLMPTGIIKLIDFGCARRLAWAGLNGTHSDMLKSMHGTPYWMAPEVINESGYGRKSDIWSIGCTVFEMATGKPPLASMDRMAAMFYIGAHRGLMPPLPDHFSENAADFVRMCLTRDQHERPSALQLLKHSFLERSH
# Chain of Phosphatidylinositol 4,5-bisphosphate 3-kinase catalytic subunit alpha isoform (Homo sapiens), P42336 [E545K] (P42336 whole entry E545K, canonical isoform): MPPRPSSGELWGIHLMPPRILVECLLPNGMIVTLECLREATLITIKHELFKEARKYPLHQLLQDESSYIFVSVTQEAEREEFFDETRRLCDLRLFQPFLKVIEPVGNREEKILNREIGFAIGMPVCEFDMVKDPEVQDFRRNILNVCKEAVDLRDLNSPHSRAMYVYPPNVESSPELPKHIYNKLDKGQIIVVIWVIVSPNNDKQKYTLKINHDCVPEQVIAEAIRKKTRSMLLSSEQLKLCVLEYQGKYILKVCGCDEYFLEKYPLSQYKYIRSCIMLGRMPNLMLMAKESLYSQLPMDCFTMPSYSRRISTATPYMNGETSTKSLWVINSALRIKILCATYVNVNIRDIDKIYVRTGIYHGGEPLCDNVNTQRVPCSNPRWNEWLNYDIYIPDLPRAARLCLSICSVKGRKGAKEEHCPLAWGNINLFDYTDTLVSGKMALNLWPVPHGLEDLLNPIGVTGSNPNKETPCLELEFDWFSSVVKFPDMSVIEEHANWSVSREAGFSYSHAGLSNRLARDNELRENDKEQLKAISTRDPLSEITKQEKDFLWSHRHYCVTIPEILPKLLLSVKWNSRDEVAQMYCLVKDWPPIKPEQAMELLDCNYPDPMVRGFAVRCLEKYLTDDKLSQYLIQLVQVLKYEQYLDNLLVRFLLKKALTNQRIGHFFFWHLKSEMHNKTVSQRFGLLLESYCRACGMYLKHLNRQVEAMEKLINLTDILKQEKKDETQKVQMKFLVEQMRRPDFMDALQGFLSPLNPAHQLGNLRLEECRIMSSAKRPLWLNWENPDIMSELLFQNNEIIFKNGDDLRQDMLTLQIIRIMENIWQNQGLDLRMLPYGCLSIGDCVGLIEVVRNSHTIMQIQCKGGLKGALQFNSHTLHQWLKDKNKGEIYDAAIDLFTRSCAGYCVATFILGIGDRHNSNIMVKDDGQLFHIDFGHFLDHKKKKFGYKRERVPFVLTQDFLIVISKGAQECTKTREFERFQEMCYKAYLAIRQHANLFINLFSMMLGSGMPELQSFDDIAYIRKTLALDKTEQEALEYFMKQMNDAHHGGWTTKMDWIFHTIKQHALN
# Chain of Ribosomal protein S6 kinase alpha-3 (Homo sapiens) (P51812 whole entry): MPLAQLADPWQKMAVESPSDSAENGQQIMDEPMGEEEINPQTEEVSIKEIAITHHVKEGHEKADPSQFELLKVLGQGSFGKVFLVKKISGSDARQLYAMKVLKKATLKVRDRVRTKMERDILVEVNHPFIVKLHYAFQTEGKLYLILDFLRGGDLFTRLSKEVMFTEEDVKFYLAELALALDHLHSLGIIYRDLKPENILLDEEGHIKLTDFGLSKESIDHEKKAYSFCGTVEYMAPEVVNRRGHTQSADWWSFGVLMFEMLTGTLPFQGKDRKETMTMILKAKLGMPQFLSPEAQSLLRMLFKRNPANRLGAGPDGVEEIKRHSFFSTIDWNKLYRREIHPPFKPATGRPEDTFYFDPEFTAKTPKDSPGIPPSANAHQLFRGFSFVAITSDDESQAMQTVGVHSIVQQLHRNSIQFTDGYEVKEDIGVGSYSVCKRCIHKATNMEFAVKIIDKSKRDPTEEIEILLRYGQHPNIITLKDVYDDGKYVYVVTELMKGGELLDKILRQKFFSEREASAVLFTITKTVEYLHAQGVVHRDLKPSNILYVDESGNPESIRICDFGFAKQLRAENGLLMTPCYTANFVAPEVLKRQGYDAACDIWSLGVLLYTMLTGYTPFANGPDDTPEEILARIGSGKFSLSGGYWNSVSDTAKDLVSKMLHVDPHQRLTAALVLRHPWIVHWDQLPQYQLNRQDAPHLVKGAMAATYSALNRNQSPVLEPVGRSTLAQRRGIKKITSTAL
compound,measurement,setting,value
C[C@H](NC(=O)Nc1cc2[nH]ncc2c(CO)n1)c1ccccn1 [ERKi-NC],residual activity,[1]; [46],100%
same,IC50,[2],1780 nM (not active)
same,residual activity,[3]; [46],100%
same,residual activity,[4]; [46],100%
same,residual activity,[5]; [46],74.9%
same,residual activity,[6]; [46],85.6%
same,residual activity,[7]; [46],100%
same,residual activity,[8]; [46],78.7%
same,inhibition,[9],3.05%
same,residual activity,[10]; [46],100%
same,residual activity,[11]; [46],81%
same,residual activity,[12]; [46],81%
same,residual activity,[13]; [46],86.2%
same,residual activity,[14]; [46],100%
same,residual activity,[15]; [46],100%
same,residual activity,[16]; [46],100%
same,inhibition,[17],20%
same,residual activity,[18]; [46],92.1%
same,residual activity,[19]; [46],88.9%
same,residual activity,[20]; [46],59.5%
same,residual activity,[21]; [46],100%
same,residual activity,[22]; [46],100%
same,residual activity,[23]; [46],100%
same,residual activity,[24]; [46],76.1%
same,residual activity,[25]; [46],100%
same,residual activity,[26]; [46],84.5%
same,residual activity,[27]; [46],100%
same,residual activity,[28]; [46],100%
same,residual activity,[29]; [46],81.7%
same,residual activity,[30]; [46],100%
same,residual activity,[31]; [46],86.6%
same,residual activity,[32]; [46],71.1%
same,residual activity,[33]; [46],94.2%
same,residual activity,[34]; [46],66.3%
same,residual activity,[35]; [46],100%
same,residual activity,[36]; [46],100%
same,inhibition,[37],21.1%
same,residual activity,[38]; [46],100%
same,residual activity,[39]; [46],95.5%
same,residual activity,[40]; [46],100%
same,residual activity,[41]; [46],100%
same,residual activity,[42]; [46],79.5%
same,residual activity,[43]; [46],74.6%
same,residual activity,[44]; [46],73.5%
same,residual activity,[45]; [46],82.6%
C[C@@H](NC(=O)Nc1cc2[nH]ncc2c(CO)n1)c1ccccc1 [ERKi],residual activity,[1]; [47],75.2%
same,IC50,[2],1.8 nM (active)
same,residual activity,[3]; [47],91.6%
same,residual activity,[4]; [47],72.7%
same,residual activity,[5]; [47],80.5%
same,residual activity,[6]; [47],74.7%
same,residual activity,[7]; [47],84%
same,residual activity,[8]; [47],97%
same,inhibition,[9],11.8%
same,residual activity,[10]; [47],59.3%
same,residual activity,[11]; [47],77.7%
same,residual activity,[12]; [47],90%
same,residual activity,[13]; [47],87.6%
same,residual activity,[14]; [47],88.7%
same,residual activity,[15]; [47],100%
same,residual activity,[16]; [47],89.6%
same,inhibition,[17],-1.87%
same,residual activity,[18]; [47],58.4%
same,residual activity,[19]; [47],89.2%
same,residual activity,[20]; [47],78.3%
same,residual activity,[21]; [47],68.5%
same,residual activity,[22]; [47],86.2%
same,residual activity,[23]; [47],88.4%
same,residual activity,[24]; [47],100%
same,residual activity,[25]; [47],63.5%
same,residual activity,[26]; [47],97.1%
same,residual activity,[27]; [47],85.3%
same,residual activity,[28]; [47],93.7%
same,residual activity,[29]; [47],100%
same,residual activity,[30]; [47],80%
same,residual activity,[31]; [47],72.6%
same,residual activity,[32]; [47],100%
same,residual activity,[33]; [47],97.4%
same,residual activity,[34]; [47],100%
same,residual activity,[35]; [47],85.7%
same,residual activity,[36]; [47],86.8%
same,inhibition,[37],7.46%
same,residual activity,[38]; [47],100%
same,residual activity,[39]; [47],84.8%
same,residual activity,[40]; [47],100%
same,residual activity,[41]; [47],100%
same,residual activity,[42]; [47],85.4%
same,residual activity,[43]; [47],100%
same,residual activity,[44]; [47],100%
same,residual activity,[45]; [47],90.6%
